Laboratory results published in patent US8815849B2, “Hetero-bicyclic derivatives as HCV inhibitors” (Janssen R&D Ireland, priority 2010, dated 2014).

System: HCV replicon (Huh-Luc cells, NS3-NS5B regions of HCV type 1b)
Assay: HCV replicon assay (Huh-7 luc/neo, luciferase readout)
Assay type: cell-based
Conditions: Hepatitis C virus, Huh-7, 72 h, Huh-Luc replicon cells, three days incubation, luciferase activity; average if tested more than once; read-out: HCV-REP-HUH7LUC_EC50
Source text: The in vitro antiviral activity against HCV of the compounds of formula I can be tested in a cellular HCV replicon system based on Lohmann et al. (1999) Science 285:110-113, with the further modifications described by Krieger et al. (2001) Journal of Virology 75: 4614-4624 (incorporated herein by reference), which is further exemplified in the examples section. This model, while not a complete infection model for HCV, is widely accepted as the most robust and efficient model of autonomous HCV RNA replication currently available. It will be appreciated that it is important to distinguish between compounds that specifically interfere with HCV functions from those that exert cytotoxic or cytostatic effects in the HCV replicon model, and as a consequence cause a decrease in HCV RNA or linked reporter enzyme concentration. Assays are known in the field for the evaluation of cellular cytotoxicity based for example on the activity of mitochondrial enzymes using fluorogenic redox dyes such as resazurin. Furthermore, cellular counter screens exist for the evaluation of non-selective inhibition of linked reporter gene activity, such as firefly luciferase. Appropriate cell types can be equipped by stable transfection with a luciferase reporter gene whose expression is dependent on a constitutively active gene promoter, and such cells can be used as a counter-screen to eliminate non-selective inhibitors.
The compounds of formula (I) were examined for inhibitory activity in the HCV replicon. This cellular assay is based on a bicistronic expression construct, as described by Lohmann et al. (1999) Science vol. 285 pp. 110-113 with modifications described by Krieger et al. (2001) Journal of Virology 75: 4614-4624, in a multi-target screening strategy.
The assay utilized the stably transfected cell line Huh-7 luc/neo (hereafter referred to as Huh-Luc). This cell line harbors an RNA encoding a bicistronic expression construct comprising the wild type NS3-NS5B regions of HCV type 1b translated from an
Internal Ribosome Entry Site (IRES) from encephalomyocarditis virus (EMCV), preceded by a reporter portion (FfL-luciferase), and a selectable marker portion (neo^R, neomycine phosphotransferase). The construct is flanked by 5′ and 3′ NTRs (non-translated regions) from HCV type 1b. Continued culture of the replicon cells in the presence of G418 (neo^R) is dependent on the replication of the HCV RNA. The stably transfected replicon cells that express HCV RNA, which replicates autonomously and to high levels, encoding inter alia luciferase, were used for screening the antiviral compounds.
The replicon cells were plated in 384 well plates in the presence of the test and control compounds which were added in various concentrations. Following an incubation of three days, HCV replication was measured by assaying luciferase activity (using standard luciferase assay substrates and reagents and a Perkin Elmer ViewLux™ ultraHTS microplate imager). Replicon cells in the control cultures have high luciferase expression in the absence of any inhibitor. The inhibitory activity of the compound on luciferase activity was monitored on the Huh-Luc cells, enabling a dose-response curve for each test compound. EC50 values were then calculated, which represent the amount of compound required to decrease the level of detected luciferase activity by 50%, or more specifically, to reduce the ability of the genetically linked HCV replicon RNA to replicate.
Where a compound of formula (I) was tested more than once in the replicon assay, the average of all test results is given in this Table 1.

Structure (SMILES) | EC50 [nM]
COC(=O)N[C@H](C(=O)N1CCC[C@H]1c1ncc(-c2ccc3cc(-c4ccc5c(=O)cc(C6CCCN6C(=O)[C@@H](NC(=O)OC)[C@@H](C)OC)[nH]c5c4)ccc3c2)[nH]1)C(C)C (stereo partly shown) [Compound 13-A1] | 0.1
CC[C@H](NC(=O)OC)C(=O)N1CCCC1c1cc(=O)c2ccc(-c3ccc4cc(-c5cnc([C@@H]6CCCN6C(=O)[C@@H](NC(=O)OC)C(C)C)[nH]5)ccc4c3)cc2[nH]1 (stereo partly shown) [Compound 13-A2] | 0.079
COC(=O)NC(C(=O)N1CCCC1c1cc(=O)c2ccc(-c3ccc4cc(-c5cnc([C@@H]6CCCN6C(=O)[C@@H](NC(=O)OC)C(C)C)[nH]5)ccc4c3)cc2[nH]1)C1CCOCC1 (stereo partly shown) [Compound 13-A4] | 1.2
CC[C@@H](C)[C@H](NC(=O)OC)C(=O)N1CCCC1c1cc(=O)c2ccc(-c3ccc4cc(-c5cnc([C@@H]6CCCN6C(=O)[C@@H](NC(=O)OC)C(C)C)[nH]5)ccc4c3)cc2[nH]1 (stereo partly shown) [Compound 13-A5] | 0.062
COCC[C@H](NC(=O)OC)C(=O)N1CCCC1c1cc(=O)c2ccc(-c3ccc4cc(-c5cnc([C@@H]6CCCN6C(=O)[C@@H](NC(=O)OC)C(C)C)[nH]5)ccc4c3)cc2[nH]1 (stereo partly shown) [Compound 13-A6] | 0.5
COC[C@H](NC(=O)OC(C)(C)C)C(=O)N1CCCC1c1cc(=O)c2ccc(-c3ccc4cc(-c5cnc([C@@H]6CCCN6C(=O)[C@@H](NC(=O)OC)C(C)C)[nH]5)ccc4c3)cc2[nH]1 (stereo partly shown) [Compound 13-A7] | 0.053
COC[C@H](NC(=O)OC)C(=O)N1CCCC1c1cc(=O)c2ccc(-c3ccc4cc(-c5cnc([C@@H]6CCCN6C(=O)[C@@H](NC(=O)OC)C(C)C)[nH]5)ccc4c3)cc2[nH]1 (stereo partly shown) [Compound 13-A8] | 0.18
COC(=O)N[C@H](C(=O)N1CCCC1c1cc2ccc(-c3ccc4cc(-c5cnc([C@@H]6CCCN6C(=O)[C@@H](NC(=O)OC)C(C)C)[nH]5)ccc4c3)cc2c(=O)[nH]1)C(C)C (stereo partly shown) [Compound 20] | 0.79

Same assay, conditions: Hepatitis C virus, Huh-7, 72 h, read-out: HCV-REP-HUH7LUC_EC50 (nM), Huh-Luc replicon cells, three days incubation, luciferase activity; average if tested more than once

Structure (SMILES) | EC50 [nM]
COC(=O)N[C@H](C(=O)N1CCCC1c1cc2ccc(-c3ccc4cc(-c5cnc([C@@H]6CCCN6C(=O)[C@@H](NC(=O)OC)[C@@H](C)OC)[nH]5)ccc4c3)cc2c(=O)[nH]1)[C@@H](C)OC (stereo partly shown) [Compound 20-A] | 0.2

Same assay, conditions: Huh-Luc replicon cells, three days incubation, luciferase activity; average if tested more than once; read-out: HCV-REP-HUH7LUC_EC50

Structure (SMILES) | EC50 [nM]
COC(=O)N[C@H](C(=O)N1CCCC1c1cc(=O)c2cc(-c3ccc4cc(-c5cnc([C@@H]6CCCN6C(=O)[C@@H](NC(=O)OC)C(C)C)[nH]5)ccc4c3)ccc2[nH]1)C(C)C (single isomer, unassigned) [Compound 22a] | 3.4
COC(=O)N[C@H](C(=O)N1CCCC1c1cc(=O)c2cc(-c3ccc4cc(-c5cnc([C@@H]6CCCN6C(=O)[C@@H](NC(=O)OC)C(C)C)[nH]5)ccc4c3)ccc2[nH]1)C(C)C (single isomer, unassigned) [Compound 22b] | 0.052
CC[C@H](C)[C@H](NC(=O)OC)C(=O)N1CCCC1c1cc(=O)c2cc(-c3ccc4cc(-c5cnc([C@@H]6CCCN6C(=O)[C@@H](NC(=O)OC)[C@@H](C)CC)[nH]5)ccc4c3)ccc2[nH]1 (single isomer, unassigned) [Compound 24a] | 9.6
COC(=O)N[C@H](C(=O)N1CCCC1c1[nH]c2cc(-c3ccc4cc(-c5cnc([C@@H]6CCCN6C(=O)[C@@H](NC(=O)OC)C(C)C)[nH]5)ccc4c3)ccc2c(=O)c1Cl)C(C)C (single isomer, unassigned) [Compound 106a] | 0.12
COC(=O)N[C@H](C(=O)N1CCCC1c1[nH]c2cc(-c3ccc4cc(-c5cnc([C@@H]6CCCN6C(=O)[C@@H](NC(=O)OC)C(C)C)[nH]5)ccc4c3)ccc2c(=O)c1Cl)C(C)C (single isomer, unassigned) [Compound 106b] | 20.6
COC(=O)N[C@H](C(=O)N1CCCC1c1cc(=O)c2ccc(-c3ccc4cc(-c5cnc([C@@H]6CCCN6C(=O)[C@@H](NC(=O)OC)C(C)C)[nH]5)ccc4c3)cc2[nH]1)C(C)C (stereo partly shown) [Compound 13] | 0.028
COC(=O)N[C@H](C(=O)N1CCCC1c1cc(=O)c2ccc(-c3ccc4cc(-c5cnc([C@@H]6CCCN6C(=O)[C@@H](NC(=O)OC)C(C)C)[nH]5)ccc4c3)cc2[nH]1)C(C)C (stereo partly shown) [Compound 13a] | 0.91
